According to patent publication US20260308535A1, “ANTI-CANCER TREATMENTS AND METHODS OF USE THEREOF” (Memorial Sloan-Kettering Cancer Center, priority 2023, published 2026):

Columns and labels:
IDH2 R140Q [1] = molecular target: T1, IDH2 R140Q (Homo sapiens, UniProt P48735, R140Q); conditions: 10 μM compound; NADH 0.5 mM; αKG 10 mM; enzyme 7.5 μg/ml; 37° C.
T1 sequence (P48735 40-452 R140Q): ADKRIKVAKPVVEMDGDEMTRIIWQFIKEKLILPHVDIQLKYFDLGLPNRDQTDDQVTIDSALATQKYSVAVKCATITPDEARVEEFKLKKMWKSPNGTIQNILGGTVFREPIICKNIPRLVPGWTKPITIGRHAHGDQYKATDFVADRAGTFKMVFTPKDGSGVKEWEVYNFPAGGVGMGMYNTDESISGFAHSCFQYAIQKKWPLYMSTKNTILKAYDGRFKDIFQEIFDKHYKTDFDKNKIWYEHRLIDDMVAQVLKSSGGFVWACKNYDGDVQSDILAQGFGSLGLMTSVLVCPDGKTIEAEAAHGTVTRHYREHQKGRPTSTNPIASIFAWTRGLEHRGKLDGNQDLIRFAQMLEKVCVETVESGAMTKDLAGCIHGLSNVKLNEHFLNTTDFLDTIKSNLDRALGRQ
Description: Briefly, enzyme reactions were set up in 384-well plate format with purified enzyme (7.5 μg/ml), NADH (0.5 mM), αKG (10 mM; added last to start reaction), and HEPES buffer. Compounds were screened using a concentration of 10 μM in DMSO. No enzyme groups were used for each condition as negative controls. […] Reactions were incubated at 37° C., and absorbance at 340 nm was monitored using an EnVision plate reader at 30-minute intervals. Results were analyzed using KNIME. Briefly, concatenated spreadsheets containing absorbance metadata (well number, plate information, absorbance read outs etc.) were merged. For baseline correction, the “no enzyme with drug” values (N1: no enzyme negative control with drug) for each condition were subtracted from the “plus enzyme with drug” values (S: enzyme with drug) for each condition. Then the baseline corrected enzyme values (S−N1) were normalized to the “no enzyme control” values (N2: no enzyme control with DMSO) to calculate robust (median based) percent of “no enzyme control” (POC) and Z-scores. […] To confirm hits, enzyme assays were carried out in the same as screening but in a 96-well plate format with 10 μM of each hit, and purified enzyme (7.5 μg/ml), NADH (0.5 mM), and αKG (10 mM). Absorbance was read at 340 nm every 15 sec for 3 hr.

IDH2 R172X = test: Effect of EDBN on IDH2 R172X mutations; assay type: biochemical; conditions: FIG. 50
IDH2 R140Q [2] = molecular target: T1, IDH2 R140Q; test: NADH-dependent reduction of αKG to 2HG, RQ; conditions: role: cofactor; RQ homodimers; NADH 0.25 mM; αKG 5.0 mM
IDH2 R140Q [3] = conditions: cited from earlier work
[4] = test system: Ba/F3 leukemia cells with IDH2 allelic configurations; assay type: cell-based, mouse
Description: Panel A Schematic depicting IDH2 dimers retrovirally transduced into Ba/F3 cells. ‘Pre’received IDH2 WT-mCherry plus IDH2 RQ-YFP; ‘Trans’ received IDH2 RQ-YFP plus IDH2 IM-GFP; ‘Cis’ received IDH2 WT-mCherry plus IDH2 RQ/IM-GFP. […] Panel C Competitive growth of ‘Pre’, ‘Trans’, and ‘Cis’ cells mixed at a 1:1:1 ratio and cultured with vehicle (DMSO) or the mutant IDH2 inhibitor enasidenib (100 nM). Changes in the percentage of ‘Pre’, ‘Trans’, and ‘Cis’ cells were assessed weekly by flow cytometry (n=3). […] Results throughout figure are representative of >3 independent experiments. Data are mean±SEM unless otherwise specified. **P<0.01, ***P<0.001, ****P<0.0001.
Cells harboring these distinct allelic configurations were marked with different combinations of fluorescent proteins (FIG. 1 panel B).

[5] = substrate: O=C(O)CCC(=O)C(=O)O; test: NADPH-dependent 2HG production, Michaelis-Menten kinetics, active-site RQ homodimers; assay type: biochemical, human; conditions: other: role: substrate, cofactor NADPH 0.33 mM, enzyme 7.5 μg/ml, 37.0 °C

Molecule	Z-Score, Screen #1 (IDH2 R140Q [1])	Z-Score, Screen #2 (IDH2 R140Q [1])	further results
CC(=O)O[C@@H]1C[C@H]2C(C)(C)C(=O)C=C[C@]2(C)[C@H]2CC[C@]3(C)C(=CC(=O)O[C@H]3c3ccoc3)[C@@]21C [Deoxygedunin]	7.959	7.554	–
CC(=O)O[C@@H]1C[C@H]2C(C)(C)C(=O)CC[C@]2(C)[C@H]2CC[C@@]3(C)[C@H](c4ccoc4)OC(=O)[C@H]4O[C@]43[C@@]21C [Dihydrogedunin]	9.578	4.452	–
CCc1ccc2[nH]c3nc(C)cc(C)c3c(=O)c2c1 [EDBN, 7-ethyl-2,4-dimethylbenzo[b][1,8]naphthyridin-5(10H)-one]	–	–	activity on IDH2 R172X mutations (IDH2 R172X): also works on IDH2 R172X mutations
O=c1c(O)c(-c2ccc(O)c(O)c2)oc2c(O)c(O)cc(O)c12 [Gossypetin]	9.982	13.35	–
COC1=C(OC)C(=O)C(CCCCCCCCCCO)=C(C)C1=O [Idebenone]	11.33	8.499	–
NC(=O)C1=CN([C@@H]2O[C@H](COP(=O)(O)OP(=O)(O)OC[C@H]3O[C@@H](n4cnc5c(N)ncnc54)[C@H](O)[C@@H]3O)[C@@H](O)[C@H]2O)C=CC1 [NADH, nicotinamide adenine dinucleotide]	–	–	use of NADH to reduce αKG (IDH2 R140Q [2]): no ability to use NADH to reduce αKG
CC(C)(O)CNc1nc(Nc2ccnc(C(F)(F)F)c2)nc(-c2cccc(C(F)(F)F)n2)n1 [enasidenib]	–	–	effect of allosteric binding on active site conformation (IDH2 R140Q [3]): can stabilize inhibitory open conformation; competitive growth of 'Cis' cells [4]: selective growth disadvantage; competitive growth of 'Trans' cells [4]: selectively grew out in the presence of enasidenib
IDH2 R140Q (RQ) homodimers (Homo sapiens; R140Q) (protein) ADKRIKVAKPVVEMDGDEMTRIIWQFIKEKLILPHVDIQLKYFDLGLPNRDQTDDQVTIDSALATQKYSVAVKCATITPDEARVEEFKLKKMWKSPNGTIQNILGGTVFREPIICKNIPRLVPGWTKPITIGRHAHGDQYKATDFVADRAGTFKMVFTPKDGSGVKEWEVYNFPAGGVGMGMYNTDESISGFAHSCFQYAIQKKWPLYMSTKNTILKAYDGRFKDIFQEIFDKHYKTDFDKNKIWYEHRLIDDMVAQVLKSSGGFVWACKNYDGDVQSDILAQGFGSLGLMTSVLVCPDGKTIEAEAAHGTVTRHYREHQKGRPTSTNPIASIFAWTRGLEHRGKLDGNQDLIRFAQMLEKVCVETVESGAMTKDLAGCIHGLSNVKLNEHFLNTTDFLDTIKSNLDRALGRQ	–	–	Km [5]: 1740 µM; Vmax [5]: 6.95 µM/min; kcat/Km [5]: 2.14e+06 M⁻¹ s⁻¹
